Laboratory results taken from the supplement of paper PMC10307832.

Tests used:
Test in all cases: relative viability (nuclei count vs DMSO), 5 days (fraction); higher = more cells survive
[1] = compound: C1CC(C1)(C(=O)O)C(=O)O.[NH2-].[NH2-].[Pt+2] [Carboplatin] + CC1(C)CCC(c2ccc(Cl)cc2)=C(CN2CCN(c3ccc(C(=O)NS(=O)(=O)c4ccc(N[C@H](CCN5CCOCC5)CSc5ccccc5)c(S(=O)(=O)C(F)(F)F)c4)cc3)CC2)C1 [Navitoclax] (partner 0.5 µM)
Outline: (§1)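 Lung cancer cell lines in 1536-well plates got either a single drug or a fixed anchor-drug dose together with five library-drug doses (not always all listed) in √10 steps, by pin tool, on the day after seeding. Nuclei were counted after 5 days, and relative viability is the treated-to-vehicle ratio of nuclei counts. Values are medians of duplicate plates.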

[2] = compound: CC[C@H](C)N1C=C(C2=C(C=C(C=C21)C3=CN=C(C=C3)N4CCNCC4)C(=O)NCC5=C(C=C(NC5=O)C)C)C [GSK126] + O=C(CCCCCCC(=O)Nc1ccccc1)NO [Vorinostat] (partner 1 µM)
Outline: as §1

[3] = compound: C1CC(C1)(C(=O)O)C(=O)O.[NH2-].[NH2-].[Pt+2] [Carboplatin] + O=C(CCCCCCC(=O)Nc1ccccc1)NO [Vorinostat] (partner 1 µM)
Outline: as §1

Row | Cell Line | relative viability ([1]; first compound 0.08 µM) | relative viability ([1]; first compound 0.253 µM) | relative viability ([1]; first compound 0.8 µM) | relative viability ([1]; first compound 2.53 µM) | relative viability ([1]; first compound 8 µM) | relative viability ([2]; first compound 0.08 µM) | relative viability ([2]; first compound 0.253 µM) | relative viability ([2]; first compound 0.8 µM) | relative viability ([2]; first compound 2.53 µM) | relative viability ([2]; first compound 8 µM) | relative viability ([3]; first compound 0.08 µM) | relative viability ([3]; first compound 0.253 µM) | relative viability ([3]; first compound 0.8 µM) | relative viability ([3]; first compound 2.53 µM) | relative viability ([3]; first compound 8 µM)
1 | EPLC-272H | 1.15 | 1.18 | 0.978 | 1.29 | 1.11 | 0.346 | 0.342 | 0.344 | 0.29 | 0.511 | 0.559 | 0.377 | 0.569 | 0.337 | 0.293
2 | H3255 | 0.658 | 0.563 | 0.634 | 0.471 | 0.476 | 0.821 | 0.865 | 0.842 | 0.817 | 0.794 | 0.777 | 0.815 | 0.776 | 0.72 | 0.572
3 | HARA | 1.1 | 1.16 | 1.08 | 1.07 | 1.09 | 0.554 | 0.47 | 0.551 | 0.51 | 0.41 | 0.471 | 0.561 | 0.472 | 0.519 | 0.35
4 | HCC-15 | 0.73 | 0.702 | 0.718 | 0.699 | 0.604 | 0.887 | 0.756 | 0.843 | 0.816 | 0.714 | 0.923 | 0.904 | 0.859 | 0.743 | 0.558
5 | HCC-44 | 0.949 | 0.99 | 0.914 | 0.786 | 0.874 | 1.15 | 1.15 | 1.05 | 1.08 | 1.15 | 1.14 | 1.11 | 1.03 | 0.999 | 0.957
6 | HCC-78 | 0.782 | 0.92 | 0.707 | 0.751 | 0.816 | 0.429 | 0.402 | 0.413 | 0.437 | 0.452 | 0.472 | 0.403 | 0.386 | 0.378 | 0.431
7 | HCC-366 | 1.08 | 1.12 | 1.13 | 1.02 | 0.753 | 0.389 | 0.354 | 0.29 | 0.342 | 0.385 | 0.451 | 0.311 | 0.317 | 0.29 | 0.114
8 | HCC-827 | 0.999 | 0.98 | 0.927 | 0.982 | 0.918 | 0.893 | 0.929 | 0.798 | 0.925 | 0.919 | 1.15 | 0.9 | 0.768 | 0.765 | 0.713
9 | HOP-62 | 1.04 | 1.08 | 0.789 | 0.902 | 0.748 | 0.725 | 0.542 | 0.633 | 0.646 | 0.665 | 0.654 | 0.662 | 0.635 | 0.664 | 0.542
10 | IA-LM | 0.756 | 0.553 | 0.826 | 0.675 | 0.532 | 1.06 | 0.797 | 0.941 | 0.929 | 0.853 | 0.952 | 1.05 | 1.05 | 0.913 | 0.81
11 | LC-2-ad | 0.37 | 0.49 | 0.422 | 0.436 | 0.326 | 0.767 | 0.667 | 0.704 | 0.712 | 0.63 | 0.724 | 0.746 | 0.659 | 0.728 | 0.594
